Columns and labels:
Assay in all cases: relative viability (nuclei count vs DMSO), 5 days (fraction); higher = more cells survive
Ispinesib + Crizotinib = compound: Cc1ccc(C(=O)N(CCCN)[C@@H](c2nc3cc(Cl)ccc3c(=O)n2Cc2ccccc2)C(C)C)cc1 [Ispinesib] + C[C@@H](Oc1cc(-c2cnn(C3CCNCC3)c2)cnc1N)c1c(Cl)ccc(F)c1Cl [Crizotinib] (partner 1 µM)
Summary of the method: (§1)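 Lung cancer cell lines were seeded in 1536-well plates and dosed by pin tool the next day, with either a single drug or a fixed anchor-drug dose combined with five library-drug doses (not always all listed) spaced in √10 steps. Five days later, one step fixed the cells and stained their nuclei (final 0.05% Triton X-100, 1% formaldehyde, 1 ug/ml Hoechst), and nuclei were counted on 4× images. Relative viability is the nuclei count in treated wells divided by the count in vehicle wells, and each value is the median of duplicate plates.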

Linsitinib + Crizotinib = compound: C[C@]1(O)C[C@@H](c2nc(-c3ccc4ccc(-c5ccccc5)nc4c3)c3c(N)nccn32)C1 [Linsitinib] + C[C@@H](Oc1cc(-c2cnn(C3CCNCC3)c2)cnc1N)c1c(Cl)ccc(F)c1Cl [Crizotinib] (partner 1 µM)
Summary of the method: as §1

Ispinesib + Pemetrexed = compound: Cc1ccc(C(=O)N(CCCN)[C@@H](c2nc3cc(Cl)ccc3c(=O)n2Cc2ccccc2)C(C)C)cc1 [Ispinesib] + Nc1nc2[nH]cc(CCc3ccc(C(=O)N[C@@H](CCC(=O)O)C(=O)O)cc3)c2c(=O)[nH]1 [Pemetrexed] (partner 0.2 µM)
Summary of the method: as §1

Linsitinib + Pictilisib = compound: C[C@]1(O)C[C@@H](c2nc(-c3ccc4ccc(-c5ccccc5)nc4c3)c3c(N)nccn32)C1 [Linsitinib] + CS(=O)(=O)N1CCN(Cc2cc3nc(-c4cccc5[nH]ncc45)nc(N4CCOCC4)c3s2)CC1 [Pictilisib] (partner 1 µM)
Summary of the method: as §1

Cell Line	relative viability (Ispinesib + Crizotinib; first compound 0.001 µM)	relative viability (Ispinesib + Crizotinib; first compound 0.003162 µM)	relative viability (Ispinesib + Crizotinib; first compound 0.01 µM)	relative viability (Ispinesib + Crizotinib; first compound 0.03162 µM)	relative viability (Ispinesib + Crizotinib; first compound 0.1 µM)	relative viability (Linsitinib + Crizotinib; first compound 0.01 µM)	relative viability (Linsitinib + Crizotinib; first compound 0.03162 µM)	relative viability (Linsitinib + Crizotinib; first compound 0.1 µM)	relative viability (Linsitinib + Crizotinib; first compound 0.3162 µM)	relative viability (Linsitinib + Crizotinib; first compound 1 µM)	relative viability (Ispinesib + Pemetrexed; first compound 0.001 µM)	relative viability (Ispinesib + Pemetrexed; first compound 0.003162 µM)	relative viability (Ispinesib + Pemetrexed; first compound 0.01 µM)	relative viability (Ispinesib + Pemetrexed; first compound 0.03162 µM)	relative viability (Ispinesib + Pemetrexed; first compound 0.1 µM)	relative viability (Linsitinib + Pictilisib; first compound 0.01 µM)	relative viability (Linsitinib + Pictilisib; first compound 0.03162 µM)	relative viability (Linsitinib + Pictilisib; first compound 0.1 µM)	relative viability (Linsitinib + Pictilisib; first compound 0.3162 µM)	relative viability (Linsitinib + Pictilisib; first compound 1 µM)
SK-MES-1	1.07	1	1.11	0.751	0.284	0.955	1.06	1.01	0.826	0.931	1.02	1.04	0.805	0.206	0.234	0.357	0.377	0.32	0.293	0.339
HCC-15	0.892	0.976	0.97	0.489	0.15	0.833	0.724	0.837	0.52	0.696	0.241	0.258	0.23	0.221	0.144	0.743	0.703	0.824	0.234	0.583
EPLC-272H	1.06	0.842	1.23	0.883	0.805	0.774	0.995	0.873		0.733	0.31	0.327	0.193	0.265	0.227	0.339	0.306	0.286		0.23
NCI-H2009	1.04	1.01	0.999	0.589	0.288	0.988	1.04	1.06	0.975	1.04	1.13	1.06	1.03	0.936	0.44	0.946	0.796	0.833	0.101	0.687
NCI-H661	1.02		1.04	0.736	0.376		0.862	1.04	0.85	0.93	0.933	0.969	0.92	0.596	0.212		0.375	0.329	0.464	0.332
NCI-H520	0.783	0.631	0.781	0.346	0.438	0.844	0.615	0.953		0.817	0.768	0.75	0.721	0.231	0.211	0.324	0.306	0.285		0.284
NCI-H1563	0.826	0.776	0.782	0.949	0.781	0.886	0.847	0.852	0.818	0.955	0.849	0.859	0.743	0.771	0.661	0.665	0.668	0.647	0.657	0.545
NCI-H2405	0.846	0.859	0.919	0.835	0.406	0.878	0.772	0.794	0.67	0.769	1.1	1.06	0.9	0.934	0.423	0.428	0.329	0.43	0.69	0.332
LCLC-97TM1	0.291	0.381	0.508	0.236	0.175	0.336	0.416	0.525	0.263	0.305	0.186	0.168	0.173	0.167	0.0653	0.283	0.254	0.208	0.117	0.154
NCI-H2228	0.511	0.4	0.539	0.374	0.207	0.411	0.419	0.399	0.298	0.398	0.375	0.293	0.424	0.303	0.201	0.425	0.382	0.28	0.239	0.27
LK-2	0.169	0.269	0.213	0.21	0.333	0.249	0.224	0.222	0.234	0.257	0.231	0.29	0.294	0.269	0.124	0.698	0.529	0.553	0.494	0.851
PC-3 [JPC-3]	0.906	1.04	1.11	1.04	0.913	1.05	0.967	0.974	0.879	0.84	1.29	1.39	1.02	0.674	0.384	0.804	0.777	0.665	0.517	0.52
NCI-H596	1.1	0.95	1	1.03	0.652	0.969	1.08	0.969	0.987	1.04	0.502	0.51	0.578	0.52	0.304	0.248	0.393	0.382	0.343	0.317
NCI-H460	1.11	1.07		0.38	0.083	0.799	0.837	0.961	0.745	0.714	0.0593	0.0626	0.0626	0.0523	0.0519	0.308	0.36	0.278	0.494	0.225
NCI-H647	1.18	0.869	0.942	0.416	0.207	1.08	1.01	1.14		0.987	0.165	0.161	0.124	0.118	0.0916	0.415	0.42	0.452		0.347
NCI-H838	0.955	0.901	1.22	0.725	0.285	0.787	0.704	0.826	0.673	0.64	0.255	0.248	0.248	0.252	0.148	0.42	0.446	0.374	0.217	0.306

Source: the supplement of paper PMC10307832
